Test: mn = molality of the nth substance listed, in mol/kg
Details: 101 kPa, Liquid; for mass density: Pycnometric method; for viscosity: Capillary tube (Ostwald / Ubbelohde) method; for speed of sound: Linear variable-path acoustic interferometer

O=[N+]([O-])[O-].O=[N+]([O-])[O-].[Mg+2] [magnesium nitrate] + O
Details | mass density [kg/m3] | speed of sound [m/s] | viscosity [mPa·s]
314.7 K, m1 = 0.0528 | 996.94 | – | –
315 K, m1 = 0.0145 | 992.8 | – | –
315.05 K, m1 = 1.525 | 1135.2 | – | –
315.1 K, m1 = 3.501 | 1288.9 | – | –
315.15 K, m1 = 3.757 | 1305.4 | – | –
315.25 K, m1 = 0.9898 | 1088.5 | – | –
315.25 K, m1 = 1.262 | 1112.4 | – | –
315.3 K, m1 = 3.17 | 1270.8 | – | –
315.6 K, m1 = 4.728 | 1367.6 | – | –
315.8 K, m1 = 5.134 | 1391.1 | – | –
315.95 K, m1 = 0.3405 | 1025.4 | – | –
316.1 K, m1 = 0.896 | 1079 | – | –
316.1 K, m1 = 2.793 | 1238.2 | – | –
316.15 K, m1 = 1.827 | 1162.1 | – | –
316.25 K, m1 = 4.039 | 1322.3 | – | –
316.35 K, m1 = 4.97 | 1380.1 | – | –
316.45 K, m1 = 5.282 | 1399.6 | – | –
316.75 K, m1 = 0.6173 | 1052.2 | – | –
317.15 K, m1 = 0.0528 | 995.93 | – | –
317.15 K, m1 = 3.501 | 1287.7 | – | –
317.25 K, m1 = 1.525 | 1134 | – | –
317.25 K, m1 = 3.096 | 1259.7 | – | –
317.35 K, m1 = 2.493 | 1213.8 | – | –
317.35 K, m1 = 3.757 | 1304.1 | – | –
317.5 K, m1 = 0.9898 | 1087.3 | – | –
317.5 K, m1 = 1.262 | 1111.2 | – | –
317.55 K, m1 = 3.118 | 1260.5 | – | –
317.55 K, m1 = 4.285 | 1337.9 | – | –
317.75 K, m1 = 2.131 | 1186 | – | –
317.85 K, m1 = 0.2491 | 1016.9 | – | –
317.95 K, m1 = 4.883 | 1372.7 | – | –
318.15 K, m1 = 0.0145 | – | 1540.2 | 0.6082
318.15 K, m1 = 0.0528 | – | 1541.4 | 0.62
318.15 K, m1 = 0.2491 | – | 1554.4 | 0.655
318.15 K, m1 = 0.3405 | – | 1552.3 | –
318.15 K, m1 = 0.5931 | – | – | 0.7284
318.15 K, m1 = 0.6173 | – | 1572 | –
318.15 K, m1 = 0.896 | – | 1590 | –
318.15 K, m1 = 0.9898 | – | 1596.3 | 0.8367
318.15 K, m1 = 1.262 | – | 1612.6 | 0.9225
318.15 K, m1 = 1.525 | – | 1629.5 | –
318.15 K, m1 = 1.827 | 1160.9 | 1650.5 | 1.117
318.15 K, m1 = 2.131 | – | 1668.7 | 1.245
318.15 K, m1 = 2.493 | – | 1689.3 | –
318.15 K, m1 = 2.584 | – | – | 1.473
318.15 K, m1 = 2.793 | – | 1708.7 | –
318.15 K, m1 = 3.096 | – | – | 1.772
318.15 K, m1 = 3.118 | – | 1727.2 | –
318.15 K, m1 = 3.17 | – | 1733.9 | –
318.15 K, m1 = 3.329 | – | – | 1.935
318.15 K, m1 = 3.501 | – | 1748.8 | –
318.15 K, m1 = 3.704 | – | – | 2.216
318.15 K, m1 = 3.757 | – | 1761.7 | –
318.15 K, m1 = 4.039 | – | – | 2.545
318.15 K, m1 = 4.051 | 1321.2 | 1776 | –
318.15 K, m1 = 4.285 | – | 1787.8 | –
318.15 K, m1 = 4.403 | – | 1794.4 | –
318.15 K, m1 = 4.728 | – | – | 3.456
318.15 K, m1 = 4.883 | – | 1818.4 | –
318.15 K, m1 = 4.907 | – | – | 3.76
318.15 K, m1 = 5.134 | – | 1832.8 | –
318.15 K, m1 = 5.282 | – | – | 4.426
318.25 K, m1 = 3.704 | 1300.4 | – | –
318.35 K, m1 = 2.584 | 1221.6 | – | –
318.4 K, m1 = 0.896 | 1077.9 | – | –
318.5 K, m1 = 4.97 | 1378.6 | – | –
318.7 K, m1 = 1.694 | 1148.1 | – | –
318.8 K, m1 = 4.403 | 1344 | – | –
318.8 K, m1 = 5.282 | 1398.1 | – | –
318.9 K, m1 = 0.5931 | 1048.4 | – | –
319.05 K, m1 = 0.6173 | 1051.1 | – | –
319.35 K, m1 = 1.525 | 1132.8 | – | –
319.35 K, m1 = 3.757 | 1302.8 | – | –
319.45 K, m1 = 3.118 | 1259.2 | – | –
319.5 K, m1 = 3.17 | 1268.1 | – | –
319.55 K, m1 = 0.0528 | 994.98 | – | –
319.55 K, m1 = 1.262 | 1110.2 | – | –
319.9 K, m1 = 2.131 | 1184.8 | – | –
319.9 K, m1 = 4.728 | 1364.8 | – | –
319.95 K, m1 = 0.0145 | 990.65 | – | –
320.2 K, m1 = 5.134 | 1388.4 | – | –
320.25 K, m1 = 2.793 | 1235.8 | – | –
320.3 K, m1 = 1.827 | 1159.7 | – | –
320.3 K, m1 = 4.039 | 1319.5 | – | –
320.65 K, m1 = 0.2491 | 1014.7 | – | –
320.85 K, m1 = 1.694 | 1146.9 | – | –
320.9 K, m1 = 0.3405 | 1023.3 | – | –
320.9 K, m1 = 5.282 | 1396.6 | – | –
321.25 K, m1 = 0.5931 | 1047.4 | – | –
321.35 K, m1 = 3.096 | 1257.2 | – | –
321.6 K, m1 = 2.493 | 1211.3 | – | –
321.75 K, m1 = 0.9898 | 1085.2 | – | –
321.8 K, m1 = 4.285 | 1335.1 | – | –
321.9 K, m1 = 4.728 | 1363.5 | – | –
321.95 K, m1 = 0.0528 | 993.94 | – | –
322.1 K, m1 = 0.0145 | 989.61 | – | –
322.2 K, m1 = 4.883 | 1370 | – | –
322.25 K, m1 = 2.793 | 1234.5 | – | –
322.35 K, m1 = 2.584 | 1219.2 | – | –
322.45 K, m1 = 3.704 | 1297.7 | – | –
322.45 K, m1 = 4.039 | 1318.2 | – | –
322.75 K, m1 = 0.2491 | 1013.6 | – | –
322.75 K, m1 = 4.051 | 1318.5 | – | –
322.8 K, m1 = 4.97 | 1375.7 | – | –
323.05 K, m1 = 4.403 | 1341.3 | – | –
323.15 K, m1 = 0.0145 | – | 1545.7 | 0.5591
323.15 K, m1 = 0.0528 | – | 1548 | 0.5708
323.15 K, m1 = 0.2491 | – | 1559.2 | 0.6023
323.15 K, m1 = 0.3405 | – | 1563.6 | –
323.15 K, m1 = 0.5931 | – | – | 0.6703
323.15 K, m1 = 0.6173 | – | 1576.6 | –
323.15 K, m1 = 0.896 | – | 1593.9 | –
323.15 K, m1 = 0.9898 | – | 1600.3 | 0.7676
323.15 K, m1 = 1.262 | – | 1614.9 | 0.8482
323.15 K, m1 = 1.525 | – | 1631.4 | –
323.15 K, m1 = 1.827 | – | 1651.2 | 1.028
323.15 K, m1 = 2.131 | – | 1667.3 | 1.145
323.15 K, m1 = 2.493 | – | 1689.2 | –
323.15 K, m1 = 2.584 | – | – | 1.353
323.15 K, m1 = 2.793 | – | 1707.5 | –
323.15 K, m1 = 3.096 | – | – | 1.629
323.15 K, m1 = 3.118 | – | 1725.2 | –
323.15 K, m1 = 3.17 | – | 1731.8 | –
323.15 K, m1 = 3.329 | – | – | 1.772
323.15 K, m1 = 3.501 | – | 1744 | –
323.15 K, m1 = 3.704 | – | – | 2.028
323.15 K, m1 = 3.757 | – | 1758.7 | –
323.15 K, m1 = 4.039 | – | – | 2.319
323.15 K, m1 = 4.051 | – | 1770.9 | –
323.15 K, m1 = 4.285 | – | 1783.2 | –
323.15 K, m1 = 4.403 | – | 1789.3 | –
323.15 K, m1 = 4.728 | – | – | 3.107
323.15 K, m1 = 4.883 | – | 1811.5 | –
323.15 K, m1 = 4.907 | – | – | 3.418
323.15 K, m1 = 5.134 | – | 1828.2 | –
323.15 K, m1 = 5.282 | 1395.1 | – | 3.975
323.4 K, m1 = 0.6173 | 1049 | – | –
323.5 K, m1 = 1.525 | 1130.6 | – | –
323.5 K, m1 = 3.757 | 1300.1 | – | –
323.55 K, m1 = 3.17 | 1265.4 | – | –
323.6 K, m1 = 3.118 | 1256.7 | – | –
323.75 K, m1 = 1.262 | 1107.8 | – | –
323.95 K, m1 = 0.9898 | 1084 | – | –
323.95 K, m1 = 2.131 | 1182.5 | – | –
324.25 K, m1 = 1.827 | 1157.4 | – | –
324.45 K, m1 = 5.134 | 1385.4 | – | –
324.95 K, m1 = 1.694 | 1144.5 | – | –
325.25 K, m1 = 5.282 | 1393.7 | – | –
